Source: patent publication US12421212B2, “Substituted benzenecarboxamides as IL-17A modulators” (DiCE Alpha, Inc., priority 2019, dated 2025)

biological target: T1, IL-17A/A (Homo sapiens, UniProt Q16552); assay: IL-17A/A HEK-Blue Cell Assay; format: cell-based; details: HEK-Blue IL-17A reporter cell line, SEAP readout at A630, 20 hours incubation with IL-17A/A; top concentration 10 uM, 1 uM or 0.3 uM
T1 construct: purchased Genscript Z03228
T1 sequence (Q16552 24-155): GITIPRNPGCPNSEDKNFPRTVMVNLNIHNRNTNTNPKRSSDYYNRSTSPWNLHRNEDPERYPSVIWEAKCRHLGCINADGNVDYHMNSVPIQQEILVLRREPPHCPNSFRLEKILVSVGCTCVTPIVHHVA

| Compound | IL-17A/A inhibition (pIC50) |
| --- | --- |
| CCC(=O)N[C@@H](C(=O)N1CCN(C)CC1)[C@@H](C)c1ccc(NC(=O)[C@@H](NC(=O)c2cccn2CC2CC2)[C@H]2CC[C@H](C)CC2)c(F)c1 [Compound 283] | A (compounds having a pIC50 of greater than or equal 8 as A) |
| CC(C)n1nccc1C(=O)N[C@H](C(=O)Nc1ccc([C@H](C)[C@@H](NC(=O)NC2CC2)C(=O)N2CCNCC2)cc1F)C1CCCCC1 [Compound 315] | A (compounds having a pIC50 of greater than or equal 8 as A) |

same assay, conditions: HEK-Blue IL-17A reporter cell line, SEAP readout at A630, 20 hours incubation with IL-17A/A; top concentration 10 uM, 1 uM or 0.3 uM; read-out: IL-17A/A inhibition (pIC50) (converted)

| Compound | IC50 |
| --- | --- |
| CCC(=O)N[C@@H](C(=O)N1CCN(C)CC1)[C@@H](C)c1ccc(NC(=O)[C@@H](NC(=O)c2ccoc2C(C)C)C2CCCCCC2)c(F)c1 [Compound 272] | < 10 nM |
| CCC(=O)N[C@@H](C(=O)N1CCN(C)CC1)[C@@H](C)c1ccc(NC(=O)[C@@H](NC(=O)c2ccnn2C2CCCC2)C2CCCCCC2)c(F)c1 [Compound 273] | < 10 nM |
| CCC(=O)N[C@@H](C(=O)N1CCN(C)CC1)[C@@H](C)c1ccc(NC(=O)[C@@H](NC(=O)c2cccn2C(C)C)C2CCCCCC2)c(F)c1 [Compound 274] | < 10 nM |
| CCC(=O)N[C@@H](C(=O)N1CCN(C)CC1)[C@@H](C)c1ccc(NC(=O)[C@@H](NC(=O)c2cccn2CC)C2CCCCCC2)c(F)c1 [Compound 275] | < 10 nM |
| CCC(=O)N[C@@H](C(=O)N1CCN(C)CC1)[C@@H](C)c1ccc(NC(=O)[C@@H](NC(=O)C(F)(F)c2csc(C)c2)[C@H]2CC[C@H](C)CC2)c(F)c1 [Compound 276] | 10 to 100 nM |
| CCC(=O)N[C@@H](C(=O)N1CCN(C)CC1)[C@@H](C)c1ccc(NC(=O)[C@@H](NC(=O)c2coc3c2COC3)[C@H]2CC[C@H](C)CC2)c(F)c1 [Compound 277] | < 10 nM |
| CCC(=O)N[C@@H](C(=O)N1CCN(C)CC1)[C@@H](C)c1ccc(NC(=O)[C@@H](NC(=O)c2nonc2CC)[C@H]2CC[C@H](C)CC2)c(F)c1 [Compound 278] | < 10 nM |
| CCC(=O)N[C@@H](C(=O)N1CCN(C)CC1)[C@@H](C)c1ccc(NC(=O)[C@@H](NC(=O)c2conc2C2CC2)[C@H]2CC[C@H](C)CC2)c(F)c1 [Compound 279] | 10 to 100 nM |
| CCC(=O)N[C@@H](C(=O)N1CCN(C)CC1)[C@@H](C)c1ccc(NC(=O)[C@@H](NC(=O)c2cccn2CC)[C@H]2CC[C@H](C)CC2)c(F)c1 [Compound 280] | 10 to 100 nM |
| CCC(=O)N[C@@H](C(=O)N1CCN(C)CC1)[C@@H](C)c1ccc(NC(=O)[C@@H](NC(=O)C(F)(F)c2cncc(OC)c2)[C@H]2CC[C@H](C)CC2)c(F)c1 [Compound 281] | 10 to 100 nM |
| CCC(=O)N[C@@H](C(=O)N1CCN(C)CC1)[C@@H](C)c1ccc(NC(=O)[C@@H](NC(=O)C(F)(F)c2cccc(C#N)c2)[C@H]2CC[C@H](C)CC2)c(F)c1 [Compound 282] | < 10 nM |
| CCC(=O)N[C@@H](C(=O)N1CCN(C)CC1)[C@@H](C)c1ccc(NC(=O)[C@@H](NC(=O)c2conc2C(C)C)[C@H]2CC[C@H](C)CC2)c(F)c1 [Compound 284] | < 10 nM |
| CCC(=O)N[C@@H](C(=O)N1CCN(C)CC1)[C@@H](C)c1ccc(NC(=O)[C@@H](NC(=O)C(F)(F)c2ccc(OC)nc2)[C@H]2CC[C@H](C(F)(F)F)CC2)c(F)c1 [Compound 285] | 10 to 100 nM |
| CCC(=O)N[C@@H](C(=O)N1CCN(C)CC1)[C@@H](C)c1ccc(NC(=O)[C@@H](NC(=O)C(F)(F)c2cccc(C#N)c2)[C@H]2CC[C@H](C(F)(F)F)CC2)c(F)c1 [Compound 286] | 10 to 100 nM |
| CCC(=O)N[C@@H](C(=O)N1CCN(C)CC1)[C@@H](C)c1ccc(NC(=O)C(NC(=O)c2conc2CC)C2CCc3ccccc32)c(F)c1 (stereo partly shown) [Compound 287] | < 10 nM |
| CCC(=O)N[C@@H](C(=O)N1CCN(C)CC1)[C@@H](C)c1ccc(NC(=O)C(NC(=O)c2ccnn2CC)[C@H](C)c2ccccc2)c(F)c1 (stereo partly shown) [Compound 288] | 10 to 100 nM |
| CCC(=O)N[C@@H](C(=O)N1CCN(C)CC1)[C@@H](C)c1ccc(NC(=O)C(NC(=O)c2ccnn2CC)[C@@H](C)c2ccccc2)c(F)c1 (stereo partly shown) [Compound 289] | 10 to 100 nM |
| CCC(=O)N[C@@H](C(=O)N1CCN(C)CC1)[C@@H](C)c1ccc(NC(=O)C(NC(=O)C(F)(F)c2cccc(C#N)c2)[C@@H](C)c2ccccc2)c(F)c1 (stereo partly shown) [Compound 290] | < 10 nM |
| CCC(=O)N[C@@H](C(=O)N1CCN(C)CC1)[C@@H](C)c1ccc(NC(=O)C(NC(=O)c2ccnn2C(C)C)[C@@H](C)c2ccccc2)c(F)c1 (stereo partly shown) [Compound 291] | 10 to 100 nM |
| CCC(=O)N[C@@H](C(=O)N1CCN(C)CC1)[C@@H](C)c1ccc(NC(=O)C(NC(=O)C(F)(F)c2cccc(C#N)c2)C2CCCC2)c(F)c1 (stereo partly shown) [Compound 292] | 10 to 100 nM |
| CCC(=O)N[C@@H](C(=O)N1CCN(C)CC1)[C@@H](C)c1ccc(NC(=O)C(NC(=O)c2ccnn2CC)C(CC)c2ccccc2)c(F)c1 (stereo partly shown) [Compound 293] | 10 to 100 nM |
| CCC(=O)N[C@@H](C(=O)N1CCN(C)CC1)[C@@H](C)c1ccc(NC(=O)[C@@H](NC(=O)C(F)(F)c2ccc(OC)nc2)[C@H]2CC[C@H](C)CC2)c(F)c1 [Compound 295] | < 10 nM |
| CCC(=O)N[C@@H](C(=O)N1CCN(C)CC1)[C@@H](C)c1ccc(NC(=O)[C@@H](NC(=O)c2ccnn2CC)C2CCC(C)(C)CC2)c(F)c1 [Compound 296] | 10 to 100 nM |
| CCC(=O)N[C@@H](C(=O)N1CCN(C)CC1)[C@@H](C)c1ccc(NC(=O)[C@@H](NC(=O)c2ccnn2CC)C2CCCCCC2)cc1 [Compound 297] | 10 to 100 nM |

| Compound | IC50 |
| --- | --- |
| CCC(=O)N[C@@H](C(=O)N1CCN(C)CC1)[C@@H](C)c1ccc(NC(=O)[C@@H](NC(=O)c2conc2CC)C2CCCCC2)cc1 [Compound 298] | 10 to 100 nM |
| CCC(=O)N[C@@H](C(=O)N1CCN(C)CC1)[C@@H](C)c1ccc(NC(=O)[C@@H](NC(=O)c2ccnn2CC)[C@H]2CC[C@H](C)CC2)cc1 [Compound 299] | 10 to 100 nM |
| CCC(=O)N[C@@H](C(=O)N1CCN(C)CC1)[C@@H](C)c1ccc(NC(=O)[C@@H](NC(=O)C(F)(F)c2cccc(C#N)c2)C2CCCCC2)cc1 [Compound 300] | 10 to 100 nM |
| C[C@@H](c1ccc(NC(=O)[C@@H](NC(=O)C(F)(F)c2cccc(C#N)c2)C2CCCCC2)cc1)[C@@H](NC(=O)c1cnns1)C(=O)N1CCN(C)CC1 [Compound 301] | < 10 nM |
| CCC(=O)N[C@H](Cc1ccc(NC(=O)[C@@H](NC(=O)C(F)(F)c2cccc(C#N)c2)C2CCCCC2)c(F)c1)C(=O)N1CCN(C)CC1 [Compound 302] | 10 to 100 nM |
| CCn1nccc1C(=O)N[C@H](C(=O)Nc1ccc([C@H](C)[C@@H](NC(=O)c2cncs2)C(=O)N2CCN(C)CC2)cc1F)C1CCCCC1 [Compound 303] | 10 to 100 nM |
| CCn1nccc1C(=O)N[C@H](C(=O)Nc1ccc([C@H](C)[C@@H](NC(=O)c2cccs2)C(=O)N2CCN(C)CC2)cc1F)C1CCCCC1 [Compound 304] | 10 to 100 nM |
| CCn1nccc1C(=O)N[C@H](C(=O)Nc1ccc([C@H](C)[C@@H](NC(=O)c2cnsc2)C(=O)N2CCN(C)CC2)cc1F)C1CCCCC1 [Compound 305] | 10 to 100 nM |
| CCn1nccc1C(=O)N[C@H](C(=O)Nc1ccc([C@H](C)[C@@H](NC(=O)c2cnnn2C)C(=O)N2CCN(C)CC2)cc1F)C1CCCCC1 [Compound 306] | 10 to 100 nM |
| CCn1nccc1C(=O)N[C@H](C(=O)Nc1ccc([C@H](C)[C@@H](NC(=O)CC2CC2)C(=O)N2CCN(C)CC2)cc1F)C1CCCCC1 [Compound 307] | 10 to 100 nM |
| C[C@@H](c1ccc(NC(=O)[C@@H](NC(=O)C(F)(F)c2cccc(C#N)c2)C2CCCCC2)c(F)c1)[C@@H](NC(=O)CC1CC1)C(=O)N1CCN(C)CC1 [Compound 308] | < 10 nM |
| COc1cncc(C(F)(F)C(=O)N[C@H](C(=O)Nc2ccc([C@H](C)[C@@H](NC(=O)c3cnns3)C(=O)N3CCN(C)CC3)cc2F)C2CCCCC2)c1 [Compound 309] | 10 to 100 nM |
| CCn1nccc1C(=O)N[C@H](C(=O)Nc1ccc([C@H](C)[C@@H](NC(=O)c2cnns2)C(=O)N2CCN(C)CC2)cc1F)C1CCCCC1 [Compound 310] | 10 to 100 nM |
| C[C@@H](c1ccc(NC(=O)[C@@H](NC(=O)C(F)(F)c2cccc(C#N)c2)C2CCCCC2)c(F)c1)[C@@H](NC(=O)c1cnns1)C(=O)N1CCN(C)CC1 [Compound 311] | < 10 nM |
| CC(C)n1nccc1C(=O)N[C@H](C(=O)Nc1ccc([C@H](C)[C@@H](NC(=O)c2cnns2)C(=O)N2CCN(C)CC2)cc1F)C1CCCCC1 [Compound 312] | < 10 nM |
| CCn1nccc1C(=O)N[C@H](C(=O)Nc1ccc([C@H](C)[C@@H](NS(=O)(=O)CC)C(=O)N2CCN(C)CC2)cc1F)C1CCCCC1 [Compound 313] | 10 to 100 nM |
| CCn1nccc1C(=O)N[C@H](C(=O)Nc1ccc([C@H](C)[C@@H](NC(=O)NC2CC2)C(=O)N2CCN(C)CC2)cc1F)C1CCCCC1 [Compound 314] | 10 to 100 nM |
| C[C@@H](c1ccc(NC(=O)[C@@H](NC(=O)C(F)(F)c2cccc(C#N)c2)C2CCCCC2)c(F)c1)[C@@H](NC(=O)NC1CC1)C(=O)N1CCN(C)CC1 [Compound 316] | < 10 nM |
| CNC(=O)N[C@@H](C(=O)N1CCN(C)CC1)[C@@H](C)c1ccc(NC(=O)[C@@H](NC(=O)C(F)(F)c2cccc(C#N)c2)C2CCCCC2)c(F)c1 [Compound 317] | 10 to 100 nM |
| C[C@@H](c1ccc(NC(=O)[C@@H](NC(=O)C(F)(F)c2cccc(C#N)c2)C2CCCCC2)c(F)c1)[C@@H](NC(=O)NC1CCC1)C(=O)N1CCN(C)CC1 [Compound 318] | 10 to 100 nM |
| CCC(=O)N[C@@H](C(=O)N1CCN(C)CC1)[C@@H](CC)c1ccc(NC(=O)[C@@H](NC(=O)c2ccnn2CC)C2CCCCCC2)cc1 [Compound 319] | 10 to 100 nM |
| CCn1nccc1C(=O)N[C@H](C(=O)Nc1ccc(C[C@@H](Nc2ncnc3cnccc23)C(=O)N2CCN(C)CC2)cc1F)C1CCCCC1 [Compound 320] | 10 to 100 nM |
| CCn1nccc1C(=O)N[C@H](C(=O)Nc1ccc(C[C@@H](NC(=O)c2ccnn2C2CCN(C)CC2)C(=O)N2CCN(C)CC2)cc1F)C1CCCCC1 [Compound 321] | 10 to 100 nM |
